According to ChEMBL document CHEMBL1938310, “Discovery of novel antitubercular 1,5-dimethyl-2-phenyl-4-([5-(arylamino)-1,3,4-oxadiazol-2-yl]methylamino)-1,2-dihydro-3H-pyrazol-3-one analogues” (Bioorg Med Chem Lett, 2012):
≈ marks a conversion by molar mass, not a printed value.

What was measured:
[1] = system: Mycobacterium tuberculosis; assay: Antimycobacterial activity against isoniazid-resistant Mycobacterium tuberculosis by two fold agar dilution method; assay type: functional
[2] = system: Mycobacterium tuberculosis; assay: Ratio of MIC for isoniazid-resistant Mycobacterium tuberculosis to MIC for Mycobacterium tuberculosis H37Rv; assay type: functional

Row | Structure (SMILES) | MIC [1] | Ratio [2]
1 | Cc1c(NCc2nnc(Nc3ccc(F)c(Cl)c3)o2)c(=O)n(-c2ccccc2)n1C | 10 µg/mL (≈ 23.3 µM) | 
2 | Cc1c(NCc2nnc(Nc3ccc(F)cc3)o2)c(=O)n(-c2ccccc2)n1C | 3.12 µg/mL (≈ 7.91 µM) | 4
3 | Cc1c(NCc2nnc(Nc3ccc(Cl)cc3)o2)c(=O)n(-c2ccccc2)n1C | 10 µg/mL (≈ 24.3 µM) | 
4 | Cc1c(NCc2nnc(Nc3ccc(Br)cc3)o2)c(=O)n(-c2ccccc2)n1C | 12.5 µg/mL (≈ 27.5 µM) | 
5 | Cc1c(NCc2nnc(Nc3ccccc3Cl)o2)c(=O)n(-c2ccccc2)n1C | > 12.5 µg/mL | 
6 | Cc1c(Cl)cccc1Nc1nnc(CNc2c(C)n(C)n(-c3ccccc3)c2=O)o1 | > 12.5 µg/mL | 
7 | Cc1c(NCc2nnc(Nc3ccc([N+](=O)[O-])cc3)o2)c(=O)n(-c2ccccc2)n1C | 6.25 µg/mL (≈ 14.8 µM) | 
8 | Cc1ccc(Nc2nnc(CNc3c(C)n(C)n(-c4ccccc4)c3=O)o2)cc1 | > 12.5 µg/mL | 
9 | COc1ccc(Nc2nnc(CNc3c(C)n(C)n(-c4ccccc4)c3=O)o2)cc1 | > 12.5 µg/mL | 
10 | Cc1ccc(Nc2nnc(CNc3c(C)n(C)n(-c4ccccc4)c3=O)o2)c(C)c1 | > 12.5 µg/mL | 
11 | Cc1cccc(C)c1Nc1nnc(CNc2c(C)n(C)n(-c3ccccc3)c2=O)o1 | > 12.5 µg/mL | 
12 | Cc1c(NCc2nnc(Nc3ccc(O)cc3)o2)c(=O)n(-c2ccccc2)n1C | 12.5 µg/mL (≈ 31.9 µM) | 
13 | Cc1c(NCc2nnc(Nc3ccc(S(N)(=O)=O)cc3)o2)c(=O)n(-c2ccccc2)n1C | 12.5 µg/mL (≈ 27.4 µM) | 
14 | Cc1c(NCc2nnc(Nc3ccccc3)o2)c(=O)n(-c2ccccc2)n1C | > 12.5 µg/mL | 
15 | NNC(=O)c1ccncc1 [ISONIAZID] | 12.5 µg/mL (≈ 91.1 µM) | 
